Columns and labels:
Format in all cases: in vivo
[1] = system: giant foxtail (Setaria faberii); test: Test A preemergence; settings: Setaria faberi, pre-emergence, 240 h
Method in brief: (§1)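 Preemergence soil spray on seeded pots or post-emergence spray on 1–2 leaf plants, in loam–sand blend. Greenhouse ~10 d. Visual rating 0–100 against untreated plants.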

[2] = system: ryegrass, Italian (Italian ryegrass, Lolium multiflorum); test: Test A preemergence; settings: Lolium multiflorum, pre-emergence, 240 h
Method in brief: as §1

[3] = system: ragweed (common ragweed, Ambrosia elatior); test: Test A preemergence; settings: Ambrosia artemisiifolia, pre-emergence, 240 h
Method in brief: as §1

Kochia (Kochia scoparia) [4] = test: Test A preemergence; settings: Bassia scoparia, pre-emergence, 240 h
Method in brief: as §1

[5] = system: barnyardgrass (Echinochloa crus-galli); test: Test A preemergence; settings: Echinochloa crus-galli, pre-emergence, 240 h
Method in brief: as §1

[6] = system: pigweed (Amaranthus retroflexus); test: Test A preemergence; settings: Amaranthus retroflexus, pre-emergence, 240 h
[7] = system: giant foxtail (Setaria faberii); test: Test A postemergence; settings: Setaria faberi, post-emergence, 240 h, postemergence, approx. 10 d
Method in brief: as §1

[8] = system: ryegrass, Italian (Italian ryegrass, Lolium multiflorum); test: Test A postemergence; settings: Lolium multiflorum, post-emergence, 240 h, postemergence, approx. 10 d
Method in brief: as §1

[9] = system: wheat (Triticum aestivum); test: Test A postemergence; settings: Triticum aestivum, post-emergence, 240 h, postemergence, approx. 10 d
Method in brief: as §1

[10] = system: ragweed (common ragweed, Ambrosia elatior); test: Test A postemergence; settings: Ambrosia artemisiifolia, post-emergence, 240 h, postemergence, approx. 10 d
Method in brief: as §1

Kochia (Kochia scoparia) [11] = test: Test A postemergence; settings: Bassia scoparia, post-emergence, 240 h, postemergence, approx. 10 d
Method in brief: as §1

corn (Zea mays) = test: Test A postemergence; settings: Zea mays, post-emergence, 240 h
Method in brief: as §1

[12] = system: barnyardgrass (Echinochloa crus-galli); test: Test A postemergence; settings: Echinochloa crus-galli, post-emergence, 240 h, read-out: Plant response rating, Barnyardgrass
Method in brief: as §1

[13] = system: Galium (catchweed bedstraw, Galium aparine); test: Test A postemergence; settings: Galium, post-emergence, 240 h, postemergence, approx. 10 d
Method in brief: as §1

[14] = system: pigweed (Amaranthus retroflexus); test: Test A postemergence; settings: Amaranthus retroflexus, post-emergence, 240 h, postemergence, approx. 10 d
Method in brief: as §1

[15] = 125 g ai/ha, Postemergence, visual injury after approximately 10 d, 0 to 100 scale where 0 is no effect and 100 is complete control
[16] = 500 g ai/ha, postemergence, visual injury, 0 to 100 scale (0 no effect, 100 complete control), approx. 10 d

O=C(Nc1ccccc1F)[C@H]1C(=O)N(C2CC2)CC[C@@H]1c1ccccc1 [Compound 1031]
0%: pest or weed control at 125 g/ha ([1]; 125 g ai/ha, Preemergence, visual injury rating after approximately 10 d, read-out: Foxtail, Giant plant response rating (0 to 100 scale, 0 is no effect, 100 is complete control)) | pest or weed control at 500 g/ha ([1]; 500 g ai/ha, preemergence, visual injury rating about 10 d after treatment, 0 to 100 scale (0 no effect, 100 complete control), read-out: Foxtail, Giant plant response rating) | pest or weed control at 125 g/ha ([2]; 125 g ai/ha, Preemergence, visual injury rating after approximately 10 d, read-out: Ryegrass, Italian plant response rating (0 to 100 scale, 0 is no effect, 100 is complete control)) | pest or weed control at 500 g/ha ([2]; 500 g ai/ha, preemergence, visual injury rating about 10 d after treatment, 0 to 100 scale (0 no effect, 100 complete control), read-out: Ryegrass, Italian plant response rating) | pest or weed control at 125 g/ha ([3]; 125 g ai/ha, Preemergence, visual injury rating after approximately 10 d, read-out: Ragweed plant response rating (0 to 100 scale, 0 is no effect, 100 is complete control)) | pest or weed control at 500 g/ha ([3]; 500 g ai/ha, preemergence, visual injury rating about 10 d after treatment, 0 to 100 scale (0 no effect, 100 complete control), read-out: Ragweed plant response rating) | pest or weed control at 125 g/ha (Kochia (Kochia scoparia) [4]; 125 g ai/ha, Preemergence, visual injury rating after approximately 10 d, read-out: Kochia plant response rating (0 to 100 scale, 0 is no effect, 100 is complete control)) | pest or weed control at 500 g/ha (Kochia (Kochia scoparia) [4]; 500 g ai/ha, preemergence, visual injury rating about 10 d after treatment, 0 to 100 scale (0 no effect, 100 complete control), read-out: Kochia plant response rating) | pest or weed control at 125 g/ha ([5]; 125 g ai/ha, Preemergence, visual injury rating after approximately 10 d, read-out: Barnyardgrass plant response rating (0 to 100 scale, 0 is no effect, 100 is complete control)) | pest or weed control at 500 g/ha ([5]; 500 g ai/ha, preemergence, visual injury rating about 10 d after treatment, 0 to 100 scale (0 no effect, 100 complete control), read-out: Barnyardgrass plant response rating) | pest or weed control at 125 g/ha ([6]; 125 g ai/ha, Preemergence, visual injury rating after approximately 10 d, read-out: Pigweed plant response rating (0 to 100 scale, 0 is no effect, 100 is complete control)) | pest or weed control at 500 g/ha ([6]; 500 g ai/ha, preemergence, visual injury rating about 10 d after treatment, 0 to 100 scale (0 no effect, 100 complete control), read-out: Pigweed plant response rating) | pest or weed control at 125 g/ha ([7]; 125 g ai/ha, visual injury on 0 to 100 scale (0 no effect, 100 complete control), read-out: Foxtail, Giant plant response rating) | pest or weed control at 500 g/ha ([7]; 500 g ai/ha, visual injury, 0 to 100 scale (0 no effect, 100 complete control), read-out: Plant response rating, Foxtail, Giant) | pest or weed control at 125 g/ha ([8]; 125 g ai/ha, visual injury on 0 to 100 scale (0 no effect, 100 complete control), read-out: Ryegrass, Italian plant response rating) | pest or weed control at 500 g/ha ([8]; 500 g ai/ha, visual injury, 0 to 100 scale (0 no effect, 100 complete control), read-out: Plant response rating, Ryegrass, Italian) | plant injury at 125 g/ha ([9]; 125 g ai/ha, visual injury on 0 to 100 scale (0 no effect, 100 complete control), read-out: Wheat plant response rating) | plant injury at 500 g/ha ([9]; 500 g ai/ha, visual injury, 0 to 100 scale (0 no effect, 100 complete control), read-out: Plant response rating, Wheat) | pest or weed control at 125 g/ha ([10]; 125 g ai/ha, visual injury on 0 to 100 scale (0 no effect, 100 complete control), read-out: Ragweed plant response rating) | pest or weed control at 500 g/ha ([10]; 500 g ai/ha, visual injury, 0 to 100 scale (0 no effect, 100 complete control), read-out: Plant response rating, Ragweed) | pest or weed control at 125 g/ha (Kochia (Kochia scoparia) [11]; 125 g ai/ha, visual injury on 0 to 100 scale (0 no effect, 100 complete control), read-out: Kochia plant response rating) | pest or weed control at 500 g/ha (Kochia (Kochia scoparia) [11]; 500 g ai/ha, visual injury, 0 to 100 scale (0 no effect, 100 complete control), read-out: Plant response rating, Kochia) | Corn plant response rating (crop injury, 0 = no effect, 100 = complete kill) at 125 g/ha (corn (Zea mays); [15]) | Corn plant response rating (crop injury, 0 = no effect, 100 = complete kill) at 500 g/ha (corn (Zea mays); [16]) | pest or weed control at 125 g/ha [12, 15] | pest or weed control at 500 g/ha [12, 16] | pest or weed control at 125 g/ha ([13]; 125 g ai/ha, visual injury on 0 to 100 scale (0 no effect, 100 complete control), read-out: Galium plant response rating) | pest or weed control at 500 g/ha ([13]; 500 g ai/ha, visual injury, 0 to 100 scale (0 no effect, 100 complete control), read-out: Plant response rating, Galium) | pest or weed control at 125 g/ha ([14]; 125 g ai/ha, visual injury on 0 to 100 scale (0 no effect, 100 complete control), read-out: Pigweed plant response rating) | pest or weed control at 500 g/ha ([14]; 500 g ai/ha, visual injury, 0 to 100 scale (0 no effect, 100 complete control), read-out: Plant response rating, Pigweed)

Reference: patent publication US12077503B2, “Substituted cyclic amides and their use as herbicides” (FMC CORPORATION, priority 2015, dated 2024)
